Consider five molecules from PubChem BioAssay AID1745844 (Carcinogenic Potency Database (CPDB), 2022).

Calls of active or inactive are those of the source. How the calls were made is not given here.

For this series, the system named is rodent lifetime carcinogenesis bioassay, tumor incidence TD50. The series is described as follows: chronic cancer bioassays in animals – CPDB, compiled studies (AID 1745844).

For the molecule `CC1=NN(c2ccccc2)C(=O)C1`, the carcinogen call runs as follows: (mouse, strain B6C3F1, females, in feed, site: any site (literature study), lesion: several types, types named in the paper, dosed 102 weeks, study length 104 weeks) “negative (inactive)”; (mouse, strain B6C3F1, males, in feed, site: any site (literature study), lesion: several types, types named in the paper, dosed 102 weeks, study length 104 weeks) “negative (inactive)”; (rat, strain Fischer 344, females, in feed, site: any site (literature study), lesion: several types, types named in the paper, dosed 103 weeks, study length 105 weeks) “negative (inactive)”; (rat, strain Fischer 344, males, in feed, site: any site (literature study), lesion: several types, types named in the paper, dosed 103 weeks, study length 105 weeks) “negative (inactive)”. Where the note is “rat, strain Fischer 344, males, in feed, site: liver, lesion: hepatocellular adenoma + hepatocellular carcinoma + neoplastic nodule, dosed 103 weeks, study length 105 weeks”, the TD50 is 3700 mg/kg/day.

`CC(COc1ccccc1)N(CCCl)Cc1ccccc1` (stereo not drawn): the TD50 (mouse, strain B6C3F1, females, i.p., site: abdominal cavity, lesion: sarcoma, NOS, dosed 52 weeks, study length 84 weeks) is 5.85 mg/kg/day; the TD50 (mouse, strain B6C3F1, females, i.p., site: any site (literature study), lesion: several types, types named in the paper, dosed 52 weeks, study length 84 weeks) came to 3.08 mg/kg/day; the TD50 (mouse, strain B6C3F1, males, i.p., site: abdominal cavity, lesion: sarcoma, NOS, dosed 51 weeks, study length 83 weeks) was 4.95 mg/kg/day; the TD50 (mouse, strain B6C3F1, males, i.p., site: any site (literature study), lesion: several types, types named in the paper, dosed 51 weeks, study length 83 weeks) was found to be 2.17 mg/kg/day; the TD50 (mouse, strain B6C3F1, males, i.p., site: liver, lesion: hepatocellular adenoma + hepatocellular carcinoma + neoplastic nodule, dosed 51 weeks, study length 83 weeks) was found to be 5.84 mg/kg/day; the TD50 (mouse, strain B6C3F1, males, i.p., site: lung, lesion: alveolar/bronchiolar adenoma + alveolar/bronchiolar carcinoma, dosed 51 weeks, study length 83 weeks) was 63 mg/kg/day. Further, the TD50 is, setting by setting: (rat, strain Sprague-Dawley, females, i.p., site: any site (literature study), lesion: several types, types named in the paper, dosed 52 weeks, study length 83 weeks) 1.34 mg/kg/day; (rat, strain Sprague-Dawley, females, i.p., site: peritoneum, lesion: sarcoma, NOS, dosed 52 weeks, study length 83 weeks) 2.36 mg/kg/day; (rat, strain Sprague-Dawley, males, i.p., site: any site (literature study), lesion: several types, types named in the paper, dosed 52 weeks, study length 83 weeks) 0.555 mg/kg/day; (rat, strain Sprague-Dawley, males, i.p., site: peritoneum, lesion: sarcoma, NOS, dosed 52 weeks, study length 83 weeks) 0.71 mg/kg/day.

Regarding `Nc1ccc(N)cc1`, the TD50 was 1500 mg/kg/day (inactive) (mouse, strain B6C3F1, females, in feed, site: any site (literature study), lesion: several types, types named in the paper, dosed 103 weeks, study length 104 weeks); 1370 mg/kg/day (mouse, strain B6C3F1, females, in feed, site: liver, lesion: hepatocellular adenoma + hepatocellular carcinoma + neoplastic nodule, dosed 103 weeks, study length 104 weeks); 1390 mg/kg/day (mouse, strain B6C3F1, females, in feed, site: lung, lesion: alveolar/bronchiolar adenoma + alveolar/bronchiolar carcinoma, dosed 103 weeks, study length 104 weeks); 4280 mg/kg/day (inactive) (rat, strain Fischer 344, females, in feed, site: adrenal gland, lesion: pheochromocytoma, dosed 80 weeks, study length 80 weeks); 247 mg/kg/day (inactive) (rat, strain Fischer 344, females, in feed, site: any site (literature study), lesion: several types, types named in the paper, dosed 103 weeks, study length 116 weeks); 2230 mg/kg/day (rat, strain Fischer 344, males, in feed, site: liver, lesion: hepatocellular adenoma + hepatocellular carcinoma + neoplastic nodule, dosed 103 weeks, study length 116 weeks). Besides, the carcinogen call (mouse, strain B6C3F1, males, in feed, site: any site (literature study), lesion: several types, types named in the paper, dosed 103 weeks, study length 104 weeks) is “negative (inactive)”; the carcinogen call (rat, strain Fischer 344, males, in feed, site: adrenal gland, lesion: pheochromocytoma, dosed 80 weeks, study length 80 weeks) is “negative (inactive)”; the carcinogen call (rat, strain Fischer 344, males, in feed, site: any site (literature study), lesion: several types, types named in the paper, dosed 103 weeks, study length 116 weeks) is “negative (inactive)”.

Take `CC(=O)Oc1ccccc1C(=O)O`: the carcinogen call is, setting by setting: (mouse, strain C57BL/6, females, in feed, site: liver, lesion: one or several types, types not named, dosed 77 weeks, study length 77 weeks) “negative (inactive)”; (mouse, strain C57BL/6, males, in feed, site: liver, lesion: one or several types, types not named, dosed 77 weeks, study length 77 weeks) “negative (inactive)”; (rat, strain Fischer 344, males, in feed, site: colon, lesion: one or several types, types not named, dosed 56 weeks, study length 56 weeks) “negative (inactive)”; (rat, strain Wistar, males, in feed, site: liver, lesion: one or several types, types not named, dosed 52 weeks, study length 52 weeks) “negative (inactive)”; (rat, strain albino, both sexes, by gavage, site: forestomach, lesion: one or several types, types not named, dosed 78 weeks, study length 78 weeks) “negative (inactive)”; (rat, strain albino, both sexes, by gavage, site: stomach, glandular, lesion: one or several types, types not named, dosed 78 weeks, study length 78 weeks) “negative (inactive)”. The TD50 (rat, strain Fischer 344, males, in feed, site: urinary bladder, lesion: papilloma, dosed 68 weeks, study length 68 weeks) was found to be 1670 mg/kg/day.

Turning to `C1CCCNCCC1`, the TD50 runs as follows: (rat, strain MRC, females, in drinking water, site: any site (literature study), lesion: several types, types named in the paper, dosed 75 weeks, study length 104 weeks) 15.8 mg/kg/day; (rat, strain MRC, males, in drinking water, site: any site (literature study), lesion: several types, types named in the paper, dosed 75 weeks, study length 104 weeks) 6.37 mg/kg/day.
